Results: the NIST ThermoML archive (doi:10.1021/je201009c)

Test: refractive index (Na D-line) (dimensionless); xn = mol fraction of the nth substance listed
Conditions: Liquid, Standard Abbe refractometry

OCc1ccccc1 [benzenemethanol] + CCO
refractive index, 100.8 kPa
Conditions	293.15 K	303.15 K	313.15 K	323.15 K
x2 = 0	1.54049	1.53635	1.53215	1.52796
x2 = 0.05	1.53607	1.53175	1.52743	1.52308
x2 = 0.1	1.53119	1.52681	1.5225	1.51807
x2 = 0.1504	1.52584	1.5215	1.51718	1.51273
x2 = 0.1999	1.52041	1.51591	1.51156	1.50721
x2 = 0.2502	1.51444	1.51002	1.5056	1.50123
x2 = 0.3003	1.50804	1.50367	1.49935	1.49494
x2 = 0.3499	1.50154	1.49716	1.49265	1.48825
x2 = 0.3998	1.49454	1.49014	1.48568	1.48127
x2 = 0.45	1.48707	1.4826	1.47818	1.47378
x2 = 0.5001	1.4791	1.47469	1.4703	1.46589
x2 = 0.55	1.47074	1.46632	1.46191	1.45755
x2 = 0.5999	1.46176	1.45731	1.45296	1.44855
x2 = 0.65	1.4522	1.4477	1.44333	1.43892
x2 = 0.6997	1.44199	1.43754	1.43309	1.4287
x2 = 0.75	1.43095	1.42651	1.42212	1.41775
x2 = 0.7999	1.41922	1.41479	1.4104	1.40607
x2 = 0.8496	1.40661	1.40202	1.39761	1.39329
x2 = 0.8998	1.39275	1.38825	1.38389	1.37963
x2 = 0.95	1.37776	1.37331	1.36905	1.36475

CC(=O)OCc1ccccc1 [benzyl ethanoate] + CCO
refractive index, 100.8 kPa
Conditions	293.15 K	303.15 K	313.15 K	323.15 K
x2 = 0	1.50245	1.49776	1.49309	1.48834
x2 = 0.0502	1.49958	1.49479	1.49006	1.48521
x2 = 0.1	1.49646	1.49168	1.48693	1.48205
x2 = 0.1498	1.49316	1.48838	1.48362	1.47874
x2 = 0.1998	1.48968	1.48491	1.48007	1.47517
x2 = 0.2499	1.48589	1.48118	1.47629	1.47143
x2 = 0.2998	1.4819	1.47715	1.47228	1.46739
x2 = 0.35	1.4776	1.47284	1.46794	1.46309
x2 = 0.4	1.47289	1.46818	1.46327	1.45847
x2 = 0.4501	1.46787	1.46316	1.45826	1.45346
x2 = 0.5	1.46245	1.45772	1.45286	1.44807
x2 = 0.5499	1.45652	1.45179	1.44703	1.44215
x2 = 0.6	1.44996	1.44531	1.44052	1.43561
x2 = 0.65	1.44279	1.43815	1.43339	1.42851
x2 = 0.7	1.43481	1.43018	1.42552	1.42067
x2 = 0.7499	1.42603	1.42142	1.41682	1.41198
x2 = 0.7999	1.41623	1.41163	1.40711	1.40231
x2 = 0.85	1.40518	1.40062	1.39617	1.39132
x2 = 0.9	1.39263	1.38811	1.38375	1.37895
x2 = 0.95	1.3782	1.37384	1.36951	1.36489

CC(=O)OCc1ccccc1 [benzyl ethanoate] + OCc1ccccc1
refractive index, 101 kPa
Conditions	293.15 K	303.15 K	313.15 K	323.15 K
x1 = 0.05	1.53821	1.5339	1.52962	1.52532
x1 = 0.1001	1.53584	1.53143	1.52715	1.52278
x1 = 0.1502	1.53352	1.52903	1.52471	1.5203
x1 = 0.2001	1.53127	1.52673	1.52235	1.51791
x1 = 0.25	1.52907	1.52449	1.52007	1.5156
x1 = 0.3	1.52689	1.52231	1.51785	1.51335
x1 = 0.3498	1.5248	1.52022	1.51571	1.51118
x1 = 0.4001	1.52279	1.51819	1.51362	1.50908
x1 = 0.45	1.52083	1.51621	1.5116	1.50704
x1 = 0.5	1.51893	1.51428	1.50964	1.50506
x1 = 0.5501	1.5171	1.51239	1.50774	1.50314
x1 = 0.6001	1.5153	1.51057	1.5059	1.50128
x1 = 0.65	1.51352	1.50881	1.5041	1.49946
x1 = 0.6999	1.51182	1.50711	1.50237	1.49771
x1 = 0.7502	1.51014	1.50545	1.5007	1.49598
x1 = 0.8	1.50852	1.50383	1.49906	1.49434
x1 = 0.85	1.50696	1.50227	1.49748	1.49276
x1 = 0.9	1.50544	1.50075	1.49596	1.49124
x1 = 0.95	1.50396	1.49926	1.4945	1.48976
x1 = 1	1.50245	1.49776	1.49309	1.48834
